Results: patent US20240415914A1, “Water Dispersible Cannabinoid Compositions” (priority 2021, published 2024)

Test: Stability of cannabinoid and Vitamin E components of Beverage 1 (AB White) stored at 8° C. and 21-25° C., LCMSMS over 570 days
Type: physicochemical
Conditions: for Stability in AB White, 8° C. (content by LCMSMS): beverage stored at 8° C.; for Stability in AB White, 21-25° C. (content by LCMSMS): beverage stored at 21-25° C.
Experimental: The LCMSMS was calibrated for 0-1000 ng/ml cannabinoids with the same resin material used in the preparation of the concentrates. At each time period, 100 ml of beverage was diluted with 10 ml of methanol and injected into the LCMSMS for analysis.

## CCCCCc1cc(O)c2c(c1)OC(C)(C)c1ccc(C)cc1-2 [CBN, cannabinol]
Day 0
  Stability in AB White, 8° C. (content by LCMSMS): 2.79 µg/mL
  Stability in AB White, 21-25° C. (content by LCMSMS): 2.79 µg/mL
Day 1
  Stability in AB White, 8° C. (content by LCMSMS): 2.77 µg/mL
  Stability in AB White, 21-25° C. (content by LCMSMS): 2.79 µg/mL
Day 2
  Stability in AB White, 8° C. (content by LCMSMS): 2.72 µg/mL
  Stability in AB White, 21-25° C. (content by LCMSMS): 2.81 µg/mL
Day 3
  Stability in AB White, 8° C. (content by LCMSMS): 2.73 µg/mL
  Stability in AB White, 21-25° C. (content by LCMSMS): 2.73 µg/mL
Day 5
  Stability in AB White, 8° C. (content by LCMSMS): 2.76 µg/mL
  Stability in AB White, 21-25° C. (content by LCMSMS): 2.80 µg/mL
Day 8
  Stability in AB White, 8° C. (content by LCMSMS): 2.75 µg/mL
  Stability in AB White, 21-25° C. (content by LCMSMS): 2.71 µg/mL
Day 9
  Stability in AB White, 8° C. (content by LCMSMS): 2.76 µg/mL
  Stability in AB White, 21-25° C. (content by LCMSMS): 2.78 µg/mL
Day 10
  Stability in AB White, 8° C. (content by LCMSMS): 2.79 µg/mL
  Stability in AB White, 21-25° C. (content by LCMSMS): 2.77 µg/mL
Day 11
  Stability in AB White, 8° C. (content by LCMSMS): 2.71 µg/mL
  Stability in AB White, 21-25° C. (content by LCMSMS): 2.80 µg/mL
Day 12
  Stability in AB White, 8° C. (content by LCMSMS): 2.80 µg/mL
  Stability in AB White, 21-25° C. (content by LCMSMS): 2.75 µg/mL
Day 15
  Stability in AB White, 8° C. (content by LCMSMS): 2.79 µg/mL
  Stability in AB White, 21-25° C. (content by LCMSMS): 2.81 µg/mL
Day 16
  Stability in AB White, 8° C. (content by LCMSMS): 2.77 µg/mL
  Stability in AB White, 21-25° C. (content by LCMSMS): 2.75 µg/mL
Day 17
  Stability in AB White, 8° C. (content by LCMSMS): 2.82 µg/mL
  Stability in AB White, 21-25° C. (content by LCMSMS): 2.70 µg/mL
Day 18
  Stability in AB White, 8° C. (content by LCMSMS): 2.71 µg/mL
  Stability in AB White, 21-25° C. (content by LCMSMS): 2.78 µg/mL
Day 19
  Stability in AB White, 8° C. (content by LCMSMS): 2.71 µg/mL
  Stability in AB White, 21-25° C. (content by LCMSMS): 2.73 µg/mL
Day 22
  Stability in AB White, 8° C. (content by LCMSMS): 2.76 µg/mL
  Stability in AB White, 21-25° C. (content by LCMSMS): 2.69 µg/mL
Day 23
  Stability in AB White, 8° C. (content by LCMSMS): 2.71 µg/mL
  Stability in AB White, 21-25° C. (content by LCMSMS): 2.68 µg/mL
Day 24
  Stability in AB White, 8° C. (content by LCMSMS): 2.75 µg/mL
  Stability in AB White, 21-25° C. (content by LCMSMS): 2.79 µg/mL
Day 25
  Stability in AB White, 8° C. (content by LCMSMS): 2.75 µg/mL
  Stability in AB White, 21-25° C. (content by LCMSMS): 2.75 µg/mL
Day 26
  Stability in AB White, 8° C. (content by LCMSMS): 2.76 µg/mL
  Stability in AB White, 21-25° C. (content by LCMSMS): 2.69 µg/mL
Day 29
  Stability in AB White, 8° C. (content by LCMSMS): 2.76 µg/mL
  Stability in AB White, 21-25° C. (content by LCMSMS): 2.75 µg/mL
Day 30
  Stability in AB White, 8° C. (content by LCMSMS): 2.78 µg/mL
  Stability in AB White, 21-25° C. (content by LCMSMS): 2.72 µg/mL
Day 60
  Stability in AB White, 8° C. (content by LCMSMS): 2.68 µg/mL
  Stability in AB White, 21-25° C. (content by LCMSMS): 2.63 µg/mL
Day 90
  Stability in AB White, 8° C. (content by LCMSMS): 2.74 µg/mL
  Stability in AB White, 21-25° C. (content by LCMSMS): 2.66 µg/mL
Day 120
  Stability in AB White, 8° C. (content by LCMSMS): 2.72 µg/mL
  Stability in AB White, 21-25° C. (content by LCMSMS): 2.67 µg/mL
Day 150
  Stability in AB White, 8° C. (content by LCMSMS): 2.69 µg/mL
  Stability in AB White, 21-25° C. (content by LCMSMS): 2.77 µg/mL
Day 180
  Stability in AB White, 8° C. (content by LCMSMS): 2.77 µg/mL
  Stability in AB White, 21-25° C. (content by LCMSMS): 2.68 µg/mL
Day 210
  Stability in AB White, 8° C. (content by LCMSMS): 2.75 µg/mL
  Stability in AB White, 21-25° C. (content by LCMSMS): 2.74 µg/mL
Day 240
  Stability in AB White, 8° C. (content by LCMSMS): 2.70 µg/mL
  Stability in AB White, 21-25° C. (content by LCMSMS): 2.71 µg/mL
Day 270
  Stability in AB White, 8° C. (content by LCMSMS): 2.75 µg/mL
  Stability in AB White, 21-25° C. (content by LCMSMS): 2.67 µg/mL
Day 300
  Stability in AB White, 8° C. (content by LCMSMS): 2.71 µg/mL
  Stability in AB White, 21-25° C. (content by LCMSMS): 2.73 µg/mL
Day 330
  Stability in AB White, 8° C. (content by LCMSMS): 2.75 µg/mL
  Stability in AB White, 21-25° C. (content by LCMSMS): 2.75 µg/mL
Day 360
  Stability in AB White, 8° C. (content by LCMSMS): 2.68 µg/mL
  Stability in AB White, 21-25° C. (content by LCMSMS): 2.67 µg/mL
Day 390
  Stability in AB White, 8° C. (content by LCMSMS): 2.67 µg/mL
  Stability in AB White, 21-25° C. (content by LCMSMS): 2.66 µg/mL
Day 420
  Stability in AB White, 8° C. (content by LCMSMS): 2.70 µg/mL
  Stability in AB White, 21-25° C. (content by LCMSMS): 2.62 µg/mL
Day 450
  Stability in AB White, 8° C. (content by LCMSMS): 2.70 µg/mL
  Stability in AB White, 21-25° C. (content by LCMSMS): 2.61 µg/mL
Day 480
  Stability in AB White, 8° C. (content by LCMSMS): 2.66 µg/mL
  Stability in AB White, 21-25° C. (content by LCMSMS): 2.57 µg/mL
Day 510
  Stability in AB White, 8° C. (content by LCMSMS): 2.60 µg/mL
  Stability in AB White, 21-25° C. (content by LCMSMS): 2.66 µg/mL
Day 540
  Stability in AB White, 8° C. (content by LCMSMS): 2.56 µg/mL
  Stability in AB White, 21-25° C. (content by LCMSMS): 2.63 µg/mL
Day 570
  Stability in AB White, 8° C. (content by LCMSMS): 2.56 µg/mL
  Stability in AB White, 21-25° C. (content by LCMSMS): 2.56 µg/mL
